Reference: patent US4642340A, “Stable compounds of glucosamine sulphate” (Rotta Research Laboratorium S.p.A., priority 1981, dated 1987)
Like-named read-outs stand apart in the source and are kept apart here.

Experiments:
[1] = Acute toxicity in rats; parameters: species or system Sprague Dawley albino rats; details: rat, in vivo; for LD50 at 240 h: 10 days observation, read-out: DL50
Description: Sprague Dawley albino rats having an average weight of about 150 g, subdivided into groups of 10 animals (5 males and 5 females) were used for each dose and for each method of administration.
The methods of administration were: oral by means of a gastric probe, intramuscular and endovenous into the caudal vein.
(§1) The observation time after administration was 10 days.

[2] = physchem; details: solid storage, Titre of glucosamine
[3] = test system: mice-embryo fibroblast; experiment: Stimulation of the production of tissue-bound GAG in mice-embryo fibroblast cultures, uptake of ^35 S; type: cell-based, mice (strain C57 BL/6 stCrl); details: Mus musculus, Fibroblast, 24 h, read-out: Δ % over non-treated controls, tissue-bound GAG
Method: (§2) For this purpose, primary cultures of mice-embryo fibroblasts (strain C57 BL/6 stCrl) were prepared by mechanical and enzymatic dissociation (in Trypsin Versene mixture-Microbiological Associates) of the embryos taken from the mother on the 18th day of pregnancy. The culture medium is the Eagle medium modified by Dulbecco and supplemented with 15% of calf foetus serum. The incubation atmosphere consists of 5% of carbon dioxide in air at 37° C. 24 hours after innoculation, the medium is replaced by a new medium containing the drug under examination and the radioactive precursor (Na2^35 SO4) for the measurement of the synthesis both of soluble and tissue-bound GAG; the culture is left to incubate for a further 24 hours and then the culture medium (containing the soluble GAG) and fibroblasts (containing the tissue-bound GAG) are separated.
(§3) The soluble GAG are isolated from the culture medium by precipitation with a solution of 5% trichloroacetic acid in ice-water while the fibroblast residues, containing the tissue-bound GAG, after repeated washings with physiological solutions, are dissolved in [sequence] or VERSENE.
(§4) The quantity of ^35 S incorporated both in the soluble GAG and in the tissue-bound GAG are evaluated by the usual scintillation methods and expressed in cpm (counts per minute).
(§5) The tests were carried out five times for each sample in order to allow the results to be evaluated statistically.

[4] = test system: granuloma from cotton pellets; experiment: Anti-inflammatory activity, granuloma induced by cotton pellets; type: in vivo, female albino rats of the Sprague Dawley strain; details: 4 days; for Average dry weight of the granuloma (average ± s.e.): in mg (unit assumed)
Method: The test consists of evaluating the capacity of the substances under examination to inhibit the formation of granuloma following the subcutaneous implantation of extraneous bodies (in this case, cotton pellets). […] One group of animals was used as a control. […] After the subcutaneous implant of 2 cotton pellets each having a weight of 20 mg into the dorsal region, the animals were administered daily, for 4 consecutive days, with the substances under examination in the doses given above.

[5] = Acute toxicity in mice; parameters: species or system Swiss NMRI mice; details: mouse, in vivo; for LD50 at 240 h: 10 days observation, read-out: DL50
Description: Swiss NMRI mice having an average weight of 20±2 g, subdivided in groups of 10 animals (5 females and 5 males) were used for each dose and for each method of administration.
The methods of administration were: oral by means of gastric probe, intramuscular and endovenous into the caudal vein.
as §1

[6] = test system: mice-embryo fibroblast; experiment: Stimulation of the production of soluble GAG in mice-embryo fibroblast cultures, uptake of ^35 S; type: cell-based, mice (strain C57 BL/6 stCrl); details: Mus musculus, Fibroblast, 24 h, read-out: Δ % over non-treated controls, soluble GAG
Method: as §2, §3, §4, §5

[7] = im, intramuscular, max. dose 3000 mg/kg
[8] = iv, endovenous, max. dose 1500 mg/kg

N[C@H]1C(O)O[C@H](CO)[C@@H](O)[C@@H]1O.O=S(=O)(O)O (stereo partly shown) [Glucosamine sulphate, glucosamine sulphate]
LD50 at 240 h ([1]; im, intramuscular): > 3000 mg/kg
mortality at 240 h [1, 7]: 0%
LD50 at 240 h ([1]; iv, endovenous): > 1500 mg/kg
mortality at 240 h [1, 8]: 0%
LD50 at 240 h ([1]; oral): > 5000 mg/kg
mortality at 240 h ([1]; oral, max. dose 5000 mg/kg): 0%
remaining at 8 h [2]: 95.8%
remaining at 16 h [2]: 73.8%
remaining at 72 h [2]: 98.4%
remaining at 168 h [2]: 98.3%
remaining at 360 h [2]: 100%
remaining at 720 h [2]: 99.4%
remaining at 1440 h [2]: 98.1%
activation at 10 µg/mL [3]: 32.7%
activation at 50 µg/mL [3]: 75.6%
activation at 100 µg/mL [3]: 94.7%
% Inhibition of granuloma ([4]; 300 mg/kg/os daily): 40.9%
Average dry weight of the granuloma (average ± s.e.) ([4]; 300 mg/kg/os daily): 91.2 ± 10.8
% Inhibition of granuloma ([4]; 600 mg/kg/os daily): 54.1%
Average dry weight of the granuloma (average ± s.e.) ([4]; 600 mg/kg/os daily): 70.7 ± 7.9
Appearance (15° C., 30% R.H., 0 days): 1
Titre of glucosamine (15° C., 30% R.H., 0 days): 98.7%
Appearance (15° C., 30% R.H., 7 days): 1
Appearance (15° C., 30% R.H., 15 days): 1
Appearance (15° C., 30% R.H., 30 days): 1
Appearance (15° C., 30% R.H., 60 days): 1
Appearance (15° C., 30% R.H., 120 days): 2
Appearance (15° C., 30% R.H., 360 days): 2-3
Appearance (15° C., 45% R.H., 0 days): 1
Appearance (15° C., 45% R.H., 7 days): 1
Appearance (15° C., 45% R.H., 15 days): 1
Appearance (15° C., 45% R.H., 30 days): 1
Appearance (15° C., 45% R.H., 60 days): 2
Appearance (15° C., 45% R.H., 120 days): 4
Appearance (15° C., 45% R.H., 360 days): 6
Appearance (15° C., 60% R.H., 0 days): 1
Appearance (15° C., 60% R.H., 3 days): 1
Appearance (15° C., 60% R.H., 6 days): 3
Appearance (15° C., 60% R.H., 12 days): 5
Appearance (15° C., 60% R.H., 24 days): 6
Appearance (15° C., 60% R.H., 36 days): 6
Appearance (15° C., 60% R.H., 48 days): 6
Appearance (25° C., 30% R.H., 0 days): 1
Titre of glucosamine (25° C., 30% R.H., 0 days): 99.6%
Appearance (25° C., 30% R.H., 7 days): 1
Appearance (25° C., 30% R.H., 15 days): 1
Appearance (25° C., 30% R.H., 30 days): 1
Appearance (25° C., 30% R.H., 60 days): 2
Appearance (25° C., 30% R.H., 120 days): 3
Appearance (25° C., 30% R.H., 360 days): 4
Appearance (25° C., 45% R.H., 0 days): 1
Titre of glucosamine (25° C., 45% R.H., 0 days): 100.5%
Appearance (25° C., 45% R.H., 3 days): 1
Appearance (25° C., 45% R.H., 6 days): 1
Appearance (25° C., 45% R.H., 12 days): 2
Appearance (25° C., 45% R.H., 24 days): 3
Appearance (25° C., 45% R.H., 36 days): 5
Appearance (25° C., 45% R.H., 48 days): 6
Time to complete decomposition (25° C., 60% R.H.): 36 h
Appearance (25° C., 60% R.H., 0 hours): 1
Appearance (25° C., 60% R.H., 2 hours): 1
Appearance (25° C., 60% R.H., 4 hours): 1
Appearance (25° C., 60% R.H., 8 hours): 2
Appearance (25° C., 60% R.H., 16 hours): 3
Appearance (25° C., 60% R.H., 24 hours): 4
Appearance (25° C., 60% R.H., 36 hours): 6
Titre of glucosamine (solid storage, 24 h): 44.6%
Titre of glucosamine (solid storage, 72 h): 100.3%
Titre of glucosamine (solid storage, 576 h): 74.5%
Titre of glucosamine (solid storage, 864 h): 29.6%
LD50 at 240 h ([5]; im, intramuscular): > 3000 mg/kg
mortality at 240 h [5, 7]: 0%
LD50 at 240 h ([5]; iv, endovenous): > 1500 mg/kg
mortality at 240 h [5, 8]: 0%
LD50 at 240 h ([5]; oral): > 5000 mg/kg
mortality at 240 h ([5]; oral, max. dose 5000 mg/kg): 0%
activation at 10 µg/mL [6]: 24.3%
activation at 50 µg/mL [6]: 96%
activation at 100 µg/mL [6]: 71.2%
